From US20100055116A1, “Methods and Compositions for Targeting c-Rel” (priority 2006, published 2010)
Peptide text beside a SMILES is read from it. * marks the point of attachment. Cbz = O=C(OCc1ccccc1)*; CH2F = FC*

Assays:
Pten-mutant B cells = assay: Proliferation and survival assays (CFSE, propidium iodide staining) with anti-IgM; type: cell-based, mouse; details: for division of Pten-mutant cells: 3 days of stimulation with BCR signal, CFSE
Excerpt: Pten(+/−) mice and Pten^flox/+ mice (background strain C57/BL6) were provided by Dr. Pandolfi PP (Di Cristofano et al., 1999 Science 285:2122). To generate B cell-specific Pten-deficient mice, Pten^flox/+ mice were crossed with CD19^cre/+ transgenic mice (purchased from Jackson lab). Offspring carrying CD19^cre/+ and the floxed Pten mutation on both alleles (Pten^flox/flox CD19^Cre/+), and the wild-type Pten gene (Pten^+/+ CD19^Cre/+) were used for analysis as homozygous mutant, wild-type mice, respectively. The mice were maintained under specific pathogen-free conditions in the animal colony of Weill Medical college of Cornell University. Pten^flox/flox CD19^Cre/+ mice were crossed with c-Rel-deficient mice (Tumang et al., 1998 Eur J Immunol 28:4299) to generate the double deficient mice.
For propidium iodide staining assay, B-cells were cultured in 10 μg/ml anti-IgM or 10 μg/ml anti-CD40 or 10 μg/ml LPS. At the indicated time points, cells were collected and stained with a solution containing 50 μg/ml propidium iodide, 20 ng/ml RNase A, 0.1% Triton X-100, and 0.1% sodium citrate. Duplicate samples were then analyzed on a Becton-Dickinson FACS using Cell-Quest software, and the percentage of apoptotic cells (<2N DNA content) or S and G2/M phase cells (>2N DNA content) quantified. For ^3H-thymidine incorporation assays, B-cells were plated at 1×10^5 cells per well in 96-well U-bottomed plates and cultured in complete media containing RPMI 1640, 10% heat inactivated FCS (DeWned; Hyclone, Logan, Utah), 2 mM L-glutamine, 1 mM non-essential amino acids, 100 μg/ml, penicillin/streptomycin, and 5×10^−5 M/L^−1 mercaptoethanol at 37° C. and 5% CO2. Where indicated, cells were stimulated with 10 μg/ml goat anti-mouse IgM F(ab′)2 (anti-IgM, Jackson ImmunoResearch Laboratories), or 10 μg/ml anti-CD40 (mAb 1C 10), or 10 μg/ml LPS. Six hours prior to the indicated time points, cultures were incubated with 0.5 μCi/well thymidine (Amersham), and then harvested onto Whatman Filters to determine proliferative responses by thymidine incorporation. […]

[1] = system: Pten-mutant and control B cells; assay: Mitochondrial potential by JC-1 staining; type: cell-based, mouse; details: anti-IgM treatment, within 12 hours
Procedure: B cells were cultured to a density of 0.5−1.0×10^6 cells/ml. For each condition, 1 ml of cells was treated with the appropriate agent for the appropriate length of time as shown in FIG. 8C. Mitochondrial potential was assessed by using the fluorescent potentiometric dye JC-1 (5,5′,6,6′,-tetrachloro-1,1′,3,3′-tetraethylbenzimidazolylcarbocyanine iodide, Molecular Probe). JC-1 is a novel cationic carbocyanine dye that accumulates in mitochondria. The dye exists as a monomer at low concentrations and yields green fluorescence, similar to fluorescein. […] These characteristics make JC-1 a sensitive marker for mitochondrial membrane potential. Briefly, 0.3 ml of the cells were mixed with 0.3 ml of staining solution (complete medium containing 0.5 μg/1 ml JC-1). Cells were stained for 30 min in a 37° C. incubator (5% CO2). After staining, cells were collected at room temperature and washed once in 1×PBS. The cell pellet was then resuspended in PBS (pre-warmed to 37° C.), and JC-1 fluorescence was analyzed on a Becton-Dickinson FACS using Cell-Quest software.

immature B cells [2] = assay: Anti-IgM induced apoptosis; type: cell-based, mouse; details: 50 mM inhibitor
Procedure: Mature and immature B cells (>95% B220+) were isolated from untreated mice or sublethally irradiated mice by complement-mediated lysis and Percoll gradient as described previously, and cultured in RPMI 1640 media containing 10% fetal calf serum (FCS) (Cellgro), 1% penicillin, 1% streptomycin (both Life Sciences BRL), and 50 uM b-mercaptoethanol (Sigma). For caspase experiments, 2×10^6/ml B cells were plated per well in 24-well polystyrene flat-bottom plates (Corning) in 1000 ul of total culture volume. […]
The following antibodies were used for FACS analysis: anti-CD24 (HSA), anti-CD21, anti-IgD, anti-IgM, and anti-B220 (RA3-6B2), labeled with R-phycoerythrin (PE), FITC or Allophyocyanin (APC), all purchased from Pharmigen. […] Duplicate samples were then analyzed by FACS (Becton-Dickinson) using CellQuest software, and the percentage of apoptotic cells (<2N DNA content) or S and G2/M phase cells (>2N DNA content) quantified. For PIP3 assays, PIP3 levels were measured using a biotin-labeled antibody against anti-PI-3,4,5-P3 (a gift from Dr. Paul Neilsen, Echelon, Salt Lake City, Utah) and FACS following a published protocol.

immature B cells [3] = assay: BCR-induced mitochondrial depolarization, JC-1 staining; type: cell-based, mouse; details: 50 mM inhibitor, anti-IgM
Procedure: Mature and immature B cells (>95% B220+) were isolated from untreated mice or sublethally irradiated mice by complement-mediated lysis and Percoll gradient as described previously, and cultured in RPMI 1640 media containing 10% fetal calf serum (FCS) (Cellgro), 1% penicillin, 1% streptomycin (both Life Sciences BRL), and 50 uM b-mercaptoethanol (Sigma). For caspase experiments, 2×10^6/ml B cells were plated per well in 24-well polystyrene flat-bottom plates (Corning) in 1000 ul of total culture volume. The following combinations of agents were added for 12 hr or 24 hr at 37° C.: 10 mg/ml of goat anti-mouse IgM F(ab)2 (anti-IgM, Jackson ImmunoResearch Laboratories), 50 mM of z-VAD-fmk, a pan-caspase inhibitor, or 50 mM of z-LEHD-fmk, a specific […], or 50 mM of z-FA-fmk, a cathepsin B inhibitor (Enzyme System Products). For the PI3K assay, 5×10^6 B cells were plated per well in 24-well polystyrene flat-bottom plates (Corning) in 2 ml final culture volume, with 10 mg/ml of goat anti-mouse IgM F(ab′)2 added for the indicated time at 37° C. […]
Cells were cultured at a density of 0.5−1.0×10^6 cells/ml. […] The dye exists as a monomer at low concentrations and yields green fluorescence, similar to fluorescein. […] The cell pellet was then resuspended in PBS, and JC-1 fluorescence analyzed by FACS.

c-Rel (homodimer) [4] = target: T1, c-Rel (homodimer) (Homo sapiens, UniProt Q04864 Q04864:2-619); assay: competition; unlabeled CD28RE returns FP to basal level at 128 nM; details: tags: C-terminal His, E. coli BL-21 Lys (DE3); full-length or subdomain (not specified); chain copies: 2 stated
T1 sequence: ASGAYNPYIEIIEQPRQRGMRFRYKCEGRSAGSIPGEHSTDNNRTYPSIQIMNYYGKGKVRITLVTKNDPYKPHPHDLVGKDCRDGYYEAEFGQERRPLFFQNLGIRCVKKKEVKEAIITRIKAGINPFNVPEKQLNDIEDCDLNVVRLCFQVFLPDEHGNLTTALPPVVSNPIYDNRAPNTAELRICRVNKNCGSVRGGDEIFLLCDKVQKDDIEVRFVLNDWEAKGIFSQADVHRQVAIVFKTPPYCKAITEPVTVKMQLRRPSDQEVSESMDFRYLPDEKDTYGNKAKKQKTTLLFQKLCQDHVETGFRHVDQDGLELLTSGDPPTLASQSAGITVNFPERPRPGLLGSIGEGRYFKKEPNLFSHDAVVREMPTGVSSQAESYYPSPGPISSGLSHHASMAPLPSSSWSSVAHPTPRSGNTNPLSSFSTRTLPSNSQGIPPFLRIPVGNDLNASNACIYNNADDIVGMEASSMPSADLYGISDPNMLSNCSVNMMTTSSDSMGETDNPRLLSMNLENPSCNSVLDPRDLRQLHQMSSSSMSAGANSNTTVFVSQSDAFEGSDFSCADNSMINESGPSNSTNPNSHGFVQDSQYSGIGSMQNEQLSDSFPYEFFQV
Procedure: (§1) According to the EMSA data, the concentrations of FITC-labeled DNA probe and c-Rel protein used in FP screen assay were optimized. Initially, the fluorescently labeled probe was added in different concentrations (5 nM, 10 nM, 100 nM) while c-Rel protein concentration (2000 nM) was constant, and the reactions were incubated for 15-30 minutes at room temperature, and then transferred to the wells of 384-well plate (20 μl/well). The FP values were measured using FUSION Universal Microplate Analyzer (Perkin Elmer, PE). […] In most cases, there is an increase in FP, with FP signals saturated in the presence of 128 nM of c-Rel. The dissociation constant (Kd) calculated using this method is larger than that observed using EMSA.
To exclude the possibility that non-specific interaction of c-Rel protein with DNA molecules contributes to the increase in FP value, a cold competition experiment was performed. […] However, a control DNA molecule, the unlabeled Oct1 (20 mers) in the same conditions as applied to the cold CD28RE probe, had no effect on FP value. Thus, this assay specifically and quantitatively measured interactions in the interface between c-Rel protein and CD28 RE.

c-Rel (homodimer) [5] = target: T1, c-Rel (homodimer); assay: FP; 10 nM probe; FP saturated at 128 nM c-Rel; Kd said to be larger than by EMSA but no number in text; abolished by GST-IkBa; details: tags: C-terminal His, E. coli BL-21 Lys (DE3); full-length or subdomain (not specified); chain copies: 2 stated; label: 5'-FITC
Procedure: as §1
It was next investigated whether this assay could detect a known endogenous inhibitor (IkBα) of c-Rel activity. […] Recombinant GST-IkBα previously generated (final concentration is 150 nM) was added to a binding reaction consisting of 10 nM FITC-CD28RE and 100 nM c-Rel. […] Thus, this assay detected specific inhibitors that function by directly binding c-Rel protein and inducing a conformation change. Moreover, consistent with the scatter data distribution shown in FIG. 3d, z factor, one assay performance indicator, was also evaluated. […]

Cc1ccc(S(=O)(=O)/C=C/C#N)cc1 [Bay 11]
division of Pten-mutant cells (Pten-mutant B cells): completely blocked | cell apoptosis (Pten-mutant B cells; propidium iodine staining): significant cell apoptosis | mitochondrial depolarization [1]: mitochondrial depolarization

CC(C)C[C@H](NC(=O)[C@H](Cc1ccccc1)NC(=O)c1cnccn1)B(O)O [Velcade]
division of Pten-mutant cells (Pten-mutant B cells): completely blocked | mitochondrial depolarization [1]: mitochondrial depolarization

CC(NC(=O)[C@H](Cc1ccccc1)NC(=O)OCc1ccccc1)C(=O)CF (stereo partly shown) [z-FA-fink]
anti-IgM induced apoptosis (immature B cells [2]): failed to inhibit

COC(=O)CC[C@H](NC(=O)[C@H](CC(C)C)NC(=O)OCc1ccccc1)C(=O)N[C@@H](Cc1cnc[nH]1)C(=O)N[C@@H](CC(=O)OC)C(=O)CF [z-LEHD-fmk] (Cbz-LE(OMe)HD(OMe)-CH2F)
BCR-induced changes in DY (mitochondrial membrane potential) (immature B cells [3]): Neither inhibitor reversed

COC(=O)C[C@H](NC(=O)[C@H](C)NC(=O)[C@@H](NC(=O)OCc1ccccc1)C(C)C)C(=O)CF [z-VAD-fmk] (Cbz-Val-Ala-Asp(OMe)-CH2F)
BCR-induced changes in DY (mitochondrial membrane potential) (immature B cells [3]): Neither inhibitor reversed

B1: CD28RE EMSA probe/unlabeled competitor (dsDNA)
DNA 1: TCTGGAATTTCTTTAAACCC
DNA 2: GGGTTTAAAGAAATTCCAGA
binding result (c-Rel (homodimer) [4]): binds

B2: CD28RE kB site 20-mer FITC probe (dsDNA)
DNA 1: TCTGGAATTTCTTTAAACCC
DNA 2: GGGTTTAAAGAAATTCCAGA
binding result (c-Rel (homodimer) [5]): binds
